Read-outs that look alike come from different tables or passages of the source.
Experiments:
[1] = system: TDP-43 inclusions in PC12 cells stably expressing wild type (WT) TDP-43-GFP; assay: Dose response assay for TDP-43 inclusion inhibition; type: cell-based; settings: Rattus norvegicus, PC-12
Description: Example 3. Dose Response Assay for TDP-43 Inhibition
Exemplary compounds of the invention were evaluated for efficacy in inhibiting TDP-43 inclusions using a dose response assay. Briefly, PC12 cells stably expressing wild type (WT) TDP-43-GFP were stressed with 15 μM to induce TDP-43 inclusions. The cells were then treated with exemplary compounds of the invention and the inhibitory effect on TDP-43 inclusions was observed using fluorescent microscopy. The ratio of cells with TDP-43 inclusions was calculated based on the total number of cells with detectable GFP expression. A 12-point dose response curve was generated, and the IC50 for each compound tested was determined.

[2] = system: Embryonic mouse hippocampal neurons transduced with TDP-43 EGFP; assay: Neuroprotection assay (dendrite length rescue); type: cell-based; settings: average rescue total dendrite length; compound at 10 times the IC50, treated DIV7, 9, 11, fixed DIV12
Description: Example 4. Neuroprotection Assay
1× Hank's balanced salt solution (Ca—/Mg, 500 mL) and 10 mM HEPES, pH 7.25-7.3 (IM stock, 5 mL)
MEM (Earle salts+/Glutamine, 95 mL), FBS (to 2.5%, 2.5 mL), Pen/Strep (1×, 1 mL), glutamine (1×, 1 mL), and D-glucose (0.6% w/v, 0.6 g)
neurobasal media (96 mL), B27 supplement (2 mL), Pen/Strep (1 mL), and glutamine (1 mL).
Embryonic mouse hippocampal neurons were cultured according to Kaech, S. and Banker, G. (2006) Nat Protoc 1:2406-2415 and dissected at […] from CD1 mice. Once all the hippocampi were removed, they were placed in a 15 mL conical Falcon tube on ice and brought to a final volume of 4.5 mL with CMF dissection buffer. 0.5 mL of a 2.5% trypsin-EDTA solution was then added, and the mixture was incubated at 37° C. for 15 min. […] Neurons were traced and analyzed using NeuronJ.
Results of the neuroprotection assay for exemplary compounds of the invention are summarized in Table 1, wherein A represents an average rescue total dendrite length of >150%; B represents an average rescue total dendrite length of 100-149%; C represents an average rescue total dendrite length of 50-99%; D represents an average rescue total dendrite length of 0-49%; E represents an average rescue total dendrite length of <0%; and ND signifies that the average rescue total dendrite length was not determined.

[3] = inhibition of TDP-43 inclusions, PC12 cells expressing WT TDP-43-GFP, 12-point dose response, fluorescent microscopy, read-out: IC50

Row | IC50 [1, 3] [nM] | SMILES | IC50 [1] [nM] | Average Additive Dendrite Length (%) [2]
1 |  | CCc1cccc(C)c1NS(=O)(=O)c1cccnc1 [Compound 102, N-(2-ethyl-6-methylphenyl)pyridine-3-sulfonamide] | 101 to 250 | 
2 | > 500 | CCc1cccc(C)c1NS(=O)(=O)c1ccccc1C(=O)N1CCCC1 [Compound 100, N-(2-ethyl-6-methylphenyl)-2-(pyrrolidine-1-carbonyl)-benzenesulfonamide] |  | C (C represents an average rescue total dendrite length of 50-99%)
3 | < 100 | CCc1cccc(C)c1NS(=O)(=O)c1cnccc1C(=O)N1CCCC1 [Compound 101, N-(2-ethyl-6-methylphenyl)-4-(pyrrolidine-1-carbonyl)pyridine-3-sulfonamide] |  | C (C represents an average rescue total dendrite length of 50-99%)

From patent US20170360726A1, “COMPOUNDS, COMPOSITIONS AND METHODS OF USE” (Aquinnah Pharmaceuticals, Inc., priority 2014, published 2017)
